Measured values from publication PMC4809600, “The Influence of Chronic Wound Extracts on Inflammatory Cytokine and Histatin Stability” (PLoS ONE, 2016).
Read-outs that look alike come from different tables or passages of the source. Where no end group is shown, it is not given here.

Columns and labels:
[1] = Stability in CWE with protease inhibitor cocktail (PIC), capillary zone electrophoresis; format: in vitro ADME, human; details: 37°C, CZE, 0 h = 100%
Description: Debridement tissue was obtained from chronic ulcers of 15 patients with therapy resistant (arterio-venous) leg ulcers, according to procedures described earlier. In brief, moist, easily removable debridement material, essentially blood free, was collected from the ulcer surface and divided equally into two different solutions: (i) PBS (B. Braun, Melsungen, Germany), (ii) PBS with protease inhibitor cocktail (PIC) (1:100; v/v) (Sigma-Aldrich, Steinheim, Germany). The mixtures were gently shaken for 1 h at 4°C to elute proteins and centrifuged; the supernatants were stored at -80°C. Total protein content of the supernatant was measured using the BioRad Protein Assay (BioRad Laboratories, Hercules, California, USA) essentially as described by the supplier. Samples were diluted to 1 mg/ml protein and extracts of five different donors were pooled; three different pools of five donors were used in all experiments. The samples are referred to as chronic wound extracts (CWE).
To determine the stability of the different peptides in CWE, histatins and cytokines were dissolved in PBS at 1 mg/ml. Histatins and cytokines were incubated in a 1:1 ratio with (i) PBS, (ii) CWE in PBS, or (iii) CWE in PBS containing PIC, in a total volume of 25 μl. Imidazole (Sigma-Aldrich) was added as an internal standard, with a final concentration of 100 μg/ml. The mixtures were incubated at 37°C, and samples were taken at 0, 24, 48, 72 and 96 h. For histatins containing mixtures, additional samples were taken after 2, 4, 8 and 16 h of incubation.
(§1) The samples were analyzed with a BioFocus 2000 capillary zone electrophoresis system (Bio-Rad Laboratories, Hercules, CA, USA) equipped with an uncoated fused-silica capillary of internal diameter 50 μm and a length of 24 cm. Samples were loaded by pressure injection (5 psi/sec). Separation was performed at 10 kV (cathode at the detector side) at 20°C using 0.1 M phosphate buffer (pH 2.5) as electrolyte and monitored continuously at 200 nm. Peaks were quantified with the BioFocus Integrator software. In order to quantify the percentage of intact peptides remaining after incubation with CWE, the ratios of histatins, rhIL-6 or rhCXCL8 to internal standard was set at 100% at 0h, and the ratios at the other incubation time points were related to this.

[2] = Dose response of Hst1 and PIC in the presence of CWE; format: in vitro ADME, human; details: CWE 1 mg/ml, 37°C, CZE, 0 h = 100%
Method: For the dose response of PIC and Hst1, three different concentrations of Hst1 were prepared (0.5 mg/ml, 1 mg/ml and 2 mg/ml) and two different concentrations of PIC were used. The final PIC concentration in the CWE (1 mg/ml) sample was 1:140 v/v (same as above) or 1:280 v/v (2x diluted). Mixtures were incubated at 37°C and samples were taken at 0, 24 and 96 h.
as §1

[3] = 1 mg/ml in PBS mixed 1:1 with CWE (1 mg/ml protein, pool of 5 donors) in PBS containing PIC (final 1:140 v/v), ratio to imidazole, experiment 1 of 3
[4] = 1 mg/ml in PBS mixed 1:1 with CWE (1 mg/ml protein, pool of 5 donors) in PBS containing PIC (final 1:140 v/v), ratio to imidazole, experiment 2 of 3
[5] = 1 mg/ml in PBS mixed 1:1 with CWE (1 mg/ml protein, pool of 5 donors) in PBS containing PIC (final 1:140 v/v), ratio to imidazole, experiment 3 of 3

DSHEKRHHGYRRKFHEKHHSHREFPFYGDYGSNYLYDN [Hst1]
Percentage intact, CWE + PIC 48h ([1]; 1 mg/ml in PBS mixed 1:1 with CWE (1 mg/ml protein, pool of 5 donors) in PBS containing PIC (final 1:140 v/v), 48 h, ratio to imidazole, experiment 3 of 3): 54.0682%
Percentage intact, CWE + PIC 72h [1, 3]: 64.2173%
Percentage intact, CWE + PIC 72h [1, 4]: 41.8342%
Percentage intact, CWE + PIC 72h [1, 5]: 36.0529%
Percentage intact, CWE + PIC 96h [1, 3]: 48.0273%
Percentage intact, CWE + PIC 96h [1, 4]: 30%
Percentage intact, CWE + PIC 96h [1, 5]: 21.2156%
remaining at 24 h, 0.5 mg/ml ([1]; human, with protease inhibitor cocktail (PIC), CWE with protease inhibitor cocktail (final 1:140 v/v), 24 h, mean of 3 independent experiments, read-out: Remaining fraction of intact peptide after 24 h in CWE + PIC): 72%
Intact Hst1, CWE + PIC 1:140 24h ([2]; Hst1 0.5 mg/ml, PIC:CWE 1:140 v/v, 24 h, experiment 1 of 3): 73.4639%
Intact Hst1, CWE + PIC 1:140 24h ([2]; Hst1 0.5 mg/ml, PIC:CWE 1:140 v/v, 24 h, experiment 2 of 3): 69.7277%
Intact Hst1, CWE + PIC 1:140 24h ([2]; Hst1 0.5 mg/ml, PIC:CWE 1:140 v/v, 24 h, experiment 3 of 3): 63.6084%
Intact Hst1, CWE + PIC 1:140 96h ([2]; Hst1 0.5 mg/ml, PIC:CWE 1:140 v/v, experiment 1 of 3): 54.3382%
Intact Hst1, CWE + PIC 1:140 96h ([2]; Hst1 0.5 mg/ml, PIC:CWE 1:140 v/v, experiment 2 of 3): 46.1353%
Intact Hst1, CWE + PIC 1:280 24h ([2]; Hst1 0.5 mg/ml, PIC:CWE 1:280 v/v, 24 h, experiment 1 of 3): 49.1645%
Intact Hst1, CWE + PIC 1:280 24h ([2]; Hst1 0.5 mg/ml, PIC:CWE 1:280 v/v, 24 h, experiment 2 of 3): 30.5445%
Intact Hst1, CWE + PIC 1:280 96h ([2]; Hst1 0.5 mg/ml, PIC:CWE 1:280 v/v, experiment 1 of 3): 24.1883%
Intact Hst1, CWE + PIC 1:280 96h ([2]; Hst1 0.5 mg/ml, PIC:CWE 1:280 v/v, experiment 2 of 3): 18.189%
Intact Hst1, CWE + PIC 1:140 24h ([2]; Hst1 1 mg/ml, PIC:CWE 1:140 v/v, 24 h, experiment 3 of 3): 58.7589%
Intact Hst1, CWE + PIC 1:140 96h ([2]; Hst1 1 mg/ml, PIC:CWE 1:140 v/v, experiment 3 of 3): 38.9986%
Intact Hst1, CWE + PIC 1:280 24h ([2]; Hst1 1 mg/ml, PIC:CWE 1:280 v/v, 24 h, experiment 3 of 3): 38.2658%
Intact Hst1, CWE + PIC 1:280 96h ([2]; Hst1 1 mg/ml, PIC:CWE 1:280 v/v, experiment 3 of 3): 25.9997%
Intact Hst1, CWE + PIC 1:140 24h ([2]; Hst1 2 mg/ml, PIC:CWE 1:140 v/v, 24 h, experiment 1 of 3): 77.6287%
Intact Hst1, CWE + PIC 1:140 24h ([2]; Hst1 2 mg/ml, PIC:CWE 1:140 v/v, 24 h, experiment 2 of 3): 76.5019%
Intact Hst1, CWE + PIC 1:140 24h ([2]; Hst1 2 mg/ml, PIC:CWE 1:140 v/v, 24 h, experiment 3 of 3): 68.9738%
Intact Hst1, CWE + PIC 1:140 96h ([2]; Hst1 2 mg/ml, PIC:CWE 1:140 v/v, experiment 1 of 3): 61.2993%
Intact Hst1, CWE + PIC 1:140 96h ([2]; Hst1 2 mg/ml, PIC:CWE 1:140 v/v, experiment 2 of 3): 47.6383%
Intact Hst1, CWE + PIC 1:140 96h ([2]; Hst1 2 mg/ml, PIC:CWE 1:140 v/v, experiment 3 of 3): 45.7764%
Intact Hst1, CWE + PIC 1:280 24h ([2]; Hst1 2 mg/ml, PIC:CWE 1:280 v/v, 24 h, experiment 1 of 3): 61.8953%
Intact Hst1, CWE + PIC 1:280 24h ([2]; Hst1 2 mg/ml, PIC:CWE 1:280 v/v, 24 h, experiment 2 of 3): 55.6946%
Intact Hst1, CWE + PIC 1:280 24h ([2]; Hst1 2 mg/ml, PIC:CWE 1:280 v/v, 24 h, experiment 3 of 3): 47.0948%
Intact Hst1, CWE + PIC 1:280 96h ([2]; Hst1 2 mg/ml, PIC:CWE 1:280 v/v, experiment 1 of 3): 42.3498%
Intact Hst1, CWE + PIC 1:280 96h ([2]; Hst1 2 mg/ml, PIC:CWE 1:280 v/v, experiment 2 of 3): 34.4262%
Intact Hst1, CWE + PIC 1:280 96h ([2]; Hst1 2 mg/ml, PIC:CWE 1:280 v/v, experiment 3 of 3): 43.3131%
remaining at 96 h, 0.5 mg/ml ([2]; human, chronic wound extracts (CWE), with protease inhibitor cocktail (PIC), PIC:CWE 1:140 v/v, Hst1 0.5 mg/ml, PIC:CWE 1:140 v/v, experiment 3 of 3, read-out: Intact Hst1, CWE + PIC 1:140 96h): 37.5%
remaining at 24 h, 1 mg/ml ([2]; human, chronic wound extracts (CWE), with protease inhibitor cocktail (PIC), PIC:CWE 1:140 v/v, Hst1 1 mg/ml, PIC:CWE 1:140 v/v, 24 h, experiment 1 of 3, read-out: Intact Hst1, CWE + PIC 1:140 24h): 76.2%
remaining at 24 h, 1 mg/ml ([2]; human, chronic wound extracts (CWE), with protease inhibitor cocktail (PIC), PIC:CWE 1:140 v/v, Hst1 1 mg/ml, PIC:CWE 1:140 v/v, 24 h, experiment 2 of 3, read-out: Intact Hst1, CWE + PIC 1:140 24h): 67%
remaining at 96 h, 1 mg/ml ([2]; human, chronic wound extracts (CWE), with protease inhibitor cocktail (PIC), PIC:CWE 1:140 v/v, Hst1 1 mg/ml, PIC:CWE 1:140 v/v, experiment 1 of 3, read-out: Intact Hst1, CWE + PIC 1:140 96h): 53.2%
remaining at 96 h, 1 mg/ml ([2]; human, chronic wound extracts (CWE), with protease inhibitor cocktail (PIC), PIC:CWE 1:140 v/v, Hst1 1 mg/ml, PIC:CWE 1:140 v/v, experiment 2 of 3, read-out: Intact Hst1, CWE + PIC 1:140 96h): 43.5%
remaining at 24 h, 0.5 mg/ml ([2]; human, chronic wound extracts (CWE), with protease inhibitor cocktail (PIC), PIC:CWE 1:280 v/v, Hst1 0.5 mg/ml, PIC:CWE 1:280 v/v, 24 h, experiment 3 of 3, read-out: Intact Hst1, CWE + PIC 1:280 24h): 34.4%
remaining at 96 h, 0.5 mg/ml ([2]; human, chronic wound extracts (CWE), with protease inhibitor cocktail (PIC), PIC:CWE 1:280 v/v, Hst1 0.5 mg/ml, PIC:CWE 1:280 v/v, experiment 3 of 3, read-out: Intact Hst1, CWE + PIC 1:280 96h): 20.3%
remaining at 24 h, 1 mg/ml ([2]; human, chronic wound extracts (CWE), with protease inhibitor cocktail (PIC), PIC:CWE 1:280 v/v, Hst1 1 mg/ml, PIC:CWE 1:280 v/v, 24 h, experiment 1 of 3, read-out: Intact Hst1, CWE + PIC 1:280 24h): 60.2%
remaining at 24 h, 1 mg/ml ([2]; human, chronic wound extracts (CWE), with protease inhibitor cocktail (PIC), PIC:CWE 1:280 v/v, Hst1 1 mg/ml, PIC:CWE 1:280 v/v, 24 h, experiment 2 of 3, read-out: Intact Hst1, CWE + PIC 1:280 24h): 51.5%
remaining at 96 h, 1 mg/ml ([2]; human, chronic wound extracts (CWE), with protease inhibitor cocktail (PIC), PIC:CWE 1:280 v/v, Hst1 1 mg/ml, PIC:CWE 1:280 v/v, experiment 1 of 3, read-out: Intact Hst1, CWE + PIC 1:280 96h): 37%
remaining at 96 h, 1 mg/ml ([2]; human, chronic wound extracts (CWE), with protease inhibitor cocktail (PIC), PIC:CWE 1:280 v/v, Hst1 1 mg/ml, PIC:CWE 1:280 v/v, experiment 2 of 3, read-out: Intact Hst1, CWE + PIC 1:280 96h): 41.5%
